Patent US4510136A (priority 1983, dated 1985)

Key:
Assay type in all cases: in vivo
[1] = system: Cercospora arachidicola; assay: Peanut early leafspot control on sprayed peanut seedlings (Example 84); details: for pest or weed control at 100 ppm / % Control Peanut Easly Leafspot: 100 ppm spray, day before inoculation
Experimental: These suspensions were sprayed to the point of run-off on peanut seedlings. The following day, the plants were inoculated with a spore suspension of Cercospora arachidicola, causal agent of peanut early leafspot, and incubated in a saturated humidity chamber at 27° for 24 hours and then in a growth room for an additional 14 days, when disease ratings were made. Treated plants from successful treatments had few or no leafspots while the untreated plants had numerous leafspots.

[2] = system: Helminthosporium maydis; assay: Southern corn leaf blight control on sprayed corn seedlings (Example 83); details: 100 ppm spray, day before inoculation; for pest or weed control at 100 ppm: Bipolaris maydis, 192 h
Experimental: The compounds of the previous examples were again dissolved in acetone in an amount equal to 6% of the final volume and then suspended at a concentration of 100 ppm in purified water containing 250 ppm of the surfactant TREM 014 (polyhydric alcohol esters). These suspensions were sprayed to the point of run-off on corn seedlings. The following day, the plants were inoculated with a spore suspension of Helminthosporium maydis, causal agent of southern corn leaf blight, and incubated in a saturated humidity chamber at 20° for 24 hours and then in a growth room for an additional 7 days, when disease ratings were made. Treated plants from successful treatments had few or no lesions while the untreated plants had numerous lesions on each leaf. Phytotoxicity expressed as growth reduction was observed on some of the plants in association with disease control.

[3] = system: Phytophthora infestans; assay: whole plant or invertebrate; details: for pest or weed control at 100 ppm: Phytophthora infestans, in Solanum lycopersicum, 168 h, read-out: % Control of Tomato Late Blight, 100 ppm spray, day before inoculation; for % Control of Tomato Late Blight: 100 ppm spray, day before inoculation
[4] = system: Venturia inaequalis; assay: Apple scab control on sprayed apple seedlings (Example 82); details: 100 ppm spray, day before inoculation; for pest or weed control at 100 ppm: Venturia inaequalis
Experimental: These suspensions were sprayed to the point of run-off on apple seedlings. The following day, the plants were inoculated with a spore suspension of the fungus Venturia inaequalis, causal agent of apple scab, and incubated in a saturated humidity chamber at 20° for 24 hours and then in a growth room for an additional 10-12 days. Treated plants from successful treatments had fewer apple scab lesions when compared to untreated plants which were covered with scab lesions. Phytotoxicity expressed as growth reduction was observed on some of the plants in association with disease control.

[5] = system: Rhizoctonia solani; assay: Rice sheath blight control on sprayed rice seedlings (Example 87); details: 100 ppm spray, day before inoculation; for pest or weed control at 100 ppm: Rhizoctonia solani, 168 h
Experimental: The compounds of the previous examples were again dissolved in acetone in an amount equal to 6% of the final volume and then suspended at a concentration of 100 ppm in purified water containing 250 ppm of the surfactant TREM 014 (polyhydric alcohol esters). This suspension was sprayed to the point of run-off on rice seedlings. The following day, the plants were inoculated with a mixture of bran and the mycelium of Rhizoctonia solani, causal agent of sheath blight of rice, and incubated in a growth room for 7 days. Disease ratings were then made. Treated plants from successful treatments had little sheath blight in contrast to untreated plants which were covered with sheath blight.

[6] = system: Pyricularia oryzae; assay: whole plant or invertebrate; details: for pest or weed control at 100 ppm: Pyricularia oryzae, 168 h, read-out: % Control of Rice Blast, 100 ppm spray, day before inoculation; for % Control of Rice Blast: 100 ppm spray, day before inoculation
[7] = system: Puccinia recondita var. tritici; assay: Wheat leaf rust control on sprayed wheat seedlings (Example 79); details: for pest or weed control at 100 ppm / % Control Wheat Rust: 100 ppm spray, day before inoculation
Experimental: The compounds of this invention were dissolved in acetone in an amount equal to 6% of the final volume and then suspended at a concentration of 100 ppm in purified water containing 250 ppm of the surfactant TREM 014 (polyhydric alcohol esters). These suspensions were sprayed to the point of run-off on wheat seedlings. The following day, the plants were inoculated with a spore suspension of Puccinia recondita var. tritici, causal agent of wheat leaf rust, and incubated in a saturated humidity chamber at 20° for 24 hours and then in a growth room for an additional 7 days, when disease ratings were made. Treated plants from successful treatments had few or no rust pustules while the untreated plants had numerous rust pustules on each leaf.

[8] = system: Erysiphe cichoracearum; assay: Cucumber powdery mildew control on sprayed cucumber seedlings (Example 80); details: 100 ppm spray, day before inoculation; for pest or weed control at 100 ppm: Golovinomyces cichoracearum, 168 h
Experimental: These suspensions were sprayed to the point of run-off, on cucumber seedlings. The following day, the plants were inoculated with a spore suspension of the fungus Erysiphe cichoracearum, causal agent of cucumber powdery mildew, and incubated in a growth room for 7 days. Disease ratings were then made. Treated plants from successful treatments had little or no powdery mildew in contrast to untreated plants which were covered with powdery mildew. Phytotoxicity in the form of growth reduction or hormonal effects was observed on some of the plants in association with disease control.

[9] = Mycosphaerella arachidis, 360 h, read-out: % Control Peanut Easly Leafspot

O[Si](Cn1cnnc1)(c1ccc(Cl)cc1)c1ccc(Cl)cc1 [bis(4-Chlorophenyl)hydroxy(4H-1,2,4-triazol-4-ylmethyl)silane] showed a pest or weed control at 100 ppm [1, 9] of 100%, a pest or weed control at 100 ppm [2] of 80% and a pest or weed control at 100 ppm [3] of 0%. The pest or weed control at 100 ppm [4] was 100%, the pest or weed control at 100 ppm [5] was 0% and the pest or weed control at 100 ppm [6] was 0%. For the same compound, the pest or weed control at 100 ppm ([7]; Puccinia recondita, 168 h) was 90% and the pest or weed control at 100 ppm [8] was 100%.
For C[Si](C)(Cn1cncn1)c1ccccc1-c1ccccc1 [(1,1'-Biphenyl-2-yl)dimethyl(1H-1,2,4-triazol-1-ylmethyl)silane], the pest or weed control at 100 ppm [1, 9] was 100%, the pest or weed control at 100 ppm [2] was 90% and the pest or weed control at 100 ppm [3] was 50%. It also gave a pest or weed control at 100 ppm [4] of 60%, a pest or weed control at 100 ppm [5] of 0% and a pest or weed control at 100 ppm [6] of 90%. It also gave a pest or weed control at 100 ppm ([7]; Puccinia recondita, 168 h) of 0% and a pest or weed control at 100 ppm [8] of 90%.
Compound Fc1ccc([Si](Cn2cncn2)(c2ccc(F)cc2)c2ccc(F)cc2)cc1 [tris(4-Fluorophenyl)(1H-1,2,4-triazol-1-ylmethyl)silane] has a pest or weed control at 100 ppm [1, 9] of 90%, a pest or weed control at 100 ppm [2] of 0% and a pest or weed control at 100 ppm [3] of 0%. It also gave a pest or weed control at 100 ppm [4] of 60%, a pest or weed control at 100 ppm [5] of 0% and a pest or weed control at 100 ppm [6] of 0%. The pest or weed control at 100 ppm ([7]; Puccinia recondita, 168 h) was 90% and the pest or weed control at 100 ppm [8] was 0%.
“(1,1'-Biphenyl-4-yl)dimethyl(1H-1,2,4-triazol-1-ylmethyl)silane, 1:1 complex with zinc (II) chloride” was tested, and the “% Control Peanut Easly Leafspot” value [1] was 100%, the “% Control of Southern Corn Leaf Blight” value [2] was 90% and the “% Control of Tomato Late Blight” value [3] was 90%. For the same compound, the “% Control Apple Scab” value [4] was 100%, the “% Control of Rice Sheath Blight” value [5] was 90% and the “% Control of Rice Blast” value [6] was 100%. For the same compound, the “% Control Wheat Rust” value [7] was 100% and the “% Control Cucumber Powdery Mildew” value [8] was 80%.
Work on CC(C)(C)O[Si](C)(Cn1cncn1)c1ccccc1 (stereo not drawn) [(1,1-dimethylethoxy)methyl(phenyl)(1H-1,2,4-triazol-1-ylmethyl)silane] yielded a pest or weed control at 100 ppm [1, 9] of 0%, a pest or weed control at 100 ppm [2] of 0% and a pest or weed control at 100 ppm [3] of 0%. The pest or weed control at 100 ppm [4] was 0%, the pest or weed control at 100 ppm [5] was 0% and the pest or weed control at 100 ppm [6] was 0%. It also gave a pest or weed control at 100 ppm ([7]; Puccinia recondita, 168 h) of 0% and a pest or weed control at 100 ppm [8] of 100%.
CC(C)(C)c1ccc([Si](C)(C)Cn2cncn2)cc1 [[4-(1,1-Dimethylethyl)phenyl]dimethyl(1H-1,2,4-triazol-1-ylmethyl)silane] was tested, and the pest or weed control at 100 ppm [1, 9] was 35%, the pest or weed control at 100 ppm [2] was 60% and the pest or weed control at 100 ppm [3] was 0%. It also gave a pest or weed control at 100 ppm [4] of 0%, a pest or weed control at 100 ppm [5] of 90% and a pest or weed control at 100 ppm [6] of 90%. For the same compound, the pest or weed control at 200 ppm ([7]; Puccinia recondita, 168 h, applied at 200 ppm) was 80% and the pest or weed control at 100 ppm [8] was 0%.
Compound C[Si](O)(Cn1cncn1)c1ccc(-c2ccccc2)cc1 (stereo not drawn) [(1,1'-Biphenyl-4-yl)hydroxy(methyl)(1H-1,2,4-triazol-1-ylmethyl)silane] has a pest or weed control at 100 ppm [1, 9] of 100%, a pest or weed control at 100 ppm [2] of 0% and a pest or weed control at 100 ppm [3] of 0%. It also gave a pest or weed control at 100 ppm [4] of 100%, a pest or weed control at 100 ppm [5] of 0% and a pest or weed control at 100 ppm [6] of 0%. The pest or weed control at 100 ppm ([7]; Puccinia recondita, 168 h) was 90% and the pest or weed control at 100 ppm [8] was 100%.
For C[Si](C)(Cn1cncn1)c1ccc(-c2ccccc2)cc1.O=S(=O)([O-])[O-].[Mn+2] [(1,1'-Biphenyl-4-yl)dimethyl(1H-1,2,4-triazol-1-ylmethyl)silane, 1:1 complex with manganous sulfate], the “% Control Peanut Easly Leafspot” value [1] was 100%, the “% Control of Southern Corn Leaf Blight” value [2] was 100% and the “% Control of Tomato Late Blight” value [3] was 0%. The “% Control Apple Scab” value [4] was 100%, the “% Control of Rice Sheath Blight” value [5] was 0% and the “% Control of Rice Blast” value [6] was 0%. The “% Control Wheat Rust” value [7] was 90% and the “% Control Cucumber Powdery Mildew” value [8] was 90%.
In the case of CCCC[Si](C)(Cn1cncn1)c1ccccc1 (stereo not drawn) [Butyl(methyl)phenyl(1H-1,2,4-triazol-1-ylmethyl)silane], the pest or weed control at 100 ppm [1, 9] is reported as 0%, the pest or weed control at 100 ppm [2] is reported as 0% and the pest or weed control at 100 ppm [3] is reported as 0%. It also gave a pest or weed control at 100 ppm [4] of 80%, a pest or weed control at 100 ppm [5] of 90% and a pest or weed control at 100 ppm [6] of 90%. It also gave a pest or weed control at 100 ppm ([7]; Puccinia recondita, 168 h) of 0% and a pest or weed control at 100 ppm [8] of 100%.
Work on C[Si](C)(Cn1cncn1)c1cccc(Cl)c1 [(3-Chlorophenyl)dimethyl(1H-1,2,4-triazol-1-ylmethyl)silane] yielded a pest or weed control at 100 ppm [1, 9] of 0%, a pest or weed control at 100 ppm [2] of 0% and a pest or weed control at 100 ppm [3] of 0%. It also gave a pest or weed control at 100 ppm [4] of 60%, a pest or weed control at 100 ppm [5] of 0% and a pest or weed control at 100 ppm [6] of 0%. It also gave a pest or weed control at 100 ppm ([7]; Puccinia recondita, 168 h) of 0% and a pest or weed control at 100 ppm [8] of 0%.
C[Si](Cn1cncn1)(c1ccccc1Cl)c1ccccc1Cl [[bis(2-Chlorophenyl)]methyl(1H-1,2,4-triazol-1-ylmethyl)silane] gave a pest or weed control at 100 ppm [1, 9] of 100%, a pest or weed control at 100 ppm [2] of 60% and a pest or weed control at 100 ppm [3] of 0%. It also gave a pest or weed control at 100 ppm [4] of 40%, a pest or weed control at 100 ppm [5] of 60% and a pest or weed control at 100 ppm [6] of 90%. It also gave a pest or weed control at 100 ppm ([7]; Puccinia recondita, 168 h) of 100% and a pest or weed control at 100 ppm [8] of 100%.
Cc1ccc([Si](C)(Cn2cncn2)c2ccc(C)cc2)cc1 [Methyl[bis(4-methylphenyl)](1H-1,2,4-triazol-1-ylmethyl)silane] showed a pest or weed control at 100 ppm [1, 9] of 0%, a pest or weed control at 100 ppm [2] of 0% and a pest or weed control at 100 ppm [3] of 0%. The pest or weed control at 100 ppm [4] was 0%, the pest or weed control at 100 ppm [5] was 30% and the pest or weed control at 100 ppm [6] was 80%. The pest or weed control at 100 ppm ([7]; Puccinia recondita, 168 h) was 0% and the pest or weed control at 100 ppm [8] was 0%.
Fc1ccc([Si](Cn2cncn2)(O[Si](Cn2cncn2)(c2ccc(F)cc2)c2ccc(F)cc2)c2ccc(F)cc2)cc1 [Oxybis[bis(4-fluorophenyl)(1H-1,2,4-triazol-1-ylmethyl)silane]] gave a pest or weed control at 20 ppm ([1]; Mycosphaerella arachidis, 360 h, applied at 20 ppm, read-out: % Control Peanut Easly Leafspot) of 93%, a pest or weed control at 100 ppm [2] of 97% and a pest or weed control at 100 ppm [3] of 0%. For the same compound, the pest or weed control at 100 ppm [4] was 100%, the pest or weed control at 100 ppm [5] was 0% and the pest or weed control at 100 ppm [6] was 50%. For the same compound, the pest or weed control at 100 ppm ([7]; Puccinia recondita, 168 h) was 100% and the pest or weed control at 100 ppm [8] was 100%.
In the case of C[Si](Cn1cncn1)(c1ccccc1)c1ccccc1Cl (stereo not drawn) [2-Chlorophenyl(methyl)phenyl(1H-1,2,4-triazol-1-ylmethyl)silane], the pest or weed control at 100 ppm [1, 9] is reported as 100%, the pest or weed control at 100 ppm [2] is reported as 100% and the pest or weed control at 100 ppm [3] is reported as 0%. The pest or weed control at 100 ppm [4] was 90%, the pest or weed control at 100 ppm [5] was 90% and the pest or weed control at 100 ppm [6] was 100%. It also gave a pest or weed control at 100 ppm ([7]; Puccinia recondita, 168 h) of 80% and a pest or weed control at 100 ppm [8] of 100%.
In the case of CC(C)O[Si](C)(Cn1cncn1)c1ccc(-c2ccccc2)cc1 (stereo not drawn) [(1,1'-biphenyl-4-yl)methyl(2-propoxy)(1H-1,2,4-triazol-1-ylmethyl)silane], the pest or weed control at 100 ppm [1, 9] is reported as 100%, the pest or weed control at 100 ppm [2] is reported as 90% and the pest or weed control at 100 ppm [3] is reported as 0%. For the same compound, the pest or weed control at 100 ppm [4] was 100%, the pest or weed control at 100 ppm [5] was 0% and the pest or weed control at 100 ppm [6] was 0%. The pest or weed control at 100 ppm ([7]; Puccinia recondita, 168 h) was 100% and the pest or weed control at 100 ppm [8] was 100%.
